Assay results from US6464988B1, “Glipizide-cyclodextrin inclusion complexes and their pharmaceutical composition” (USV Limited, priority 2001, dated 2002).

Assay: In-vitro dissolution studies (% release of glipizide)
Format: physicochemical
Conditions: containing 10 mg of Glipizide

% release of glipizide (0.1N Hydrochloric acid, 200 ml, 5 mins): 14-18% | % release of glipizide (0.1N Hydrochloric acid, 200 ml, 15 mins): 23-24% | % release of glipizide (0.1N Hydrochloric acid, 200 ml, 30 mins): 23-26% | % release of glipizide (0.1N Hydrochloric acid, 400 ml, 5 mins): 16-20% | % release of glipizide (0.1N Hydrochloric acid, 400 ml, 15 mins): 26-27% | % release of glipizide (0.1N Hydrochloric acid, 400 ml, 30 mins): 26-30% | % release of glipizide (0.1N Hydrochloric acid, 900 ml, 5 mins): 16-18% | % release of glipizide (0.1N Hydrochloric acid, 900 ml, 15 mins): 22-26% | % release of glipizide (0.1N Hydrochloric acid, 900 ml, 30 mins): 24-27% | % release of glipizide (Phosphate Buffer pH 6.8 USP, 200 ml, 5 mins): 23-27% | % release of glipizide (Phosphate Buffer pH 6.8 USP, 200 ml, 15 mins): 65-67% | % release of glipizide (Phosphate Buffer pH 6.8 USP, 200 ml, 30 mins): 64-67% | % release of glipizide (Phosphate Buffer pH 6.8 USP, 400 ml, 5 mins): 24-29% | % release of glipizide (Phosphate Buffer pH 6.8 USP, 400 ml, 15 mins): 64-69% | % release of glipizide (Phosphate Buffer pH 6.8 USP, 400 ml, 30 mins): 65-67% | % release of glipizide (Phosphate Buffer pH 6.8 USP, 900 ml, 5 mins): 25-28% | % release of glipizide (Phosphate Buffer pH 6.8 USP, 900 ml, 15 mins): 55-62% | % release of glipizide (Phosphate Buffer pH 6.8 USP, 900 ml, 30 mins): 65-68% | % release of glipizide (Purified water pH 7.0, 200 ml, 5 mins): 30-32% | % release of glipizide (Purified water pH 7.0, 200 ml, 15 mins): 38-40% | % release of glipizide (Purified water pH 7.0, 200 ml, 30 mins): 39-41% | % release of glipizide (Purified water pH 7.0, 400 ml, 5 mins): 32-34% | % release of glipizide (Purified water pH 7.0, 400 ml, 15 mins): 40-42% | % release of glipizide (Purified water pH 7.0, 400 ml, 30 mins): 40-44% | % release of glipizide (Purified water pH 7.0, 900 ml, 5 mins): 20-25% | % release of glipizide (Purified water pH 7.0, 900 ml, 15 mins): 30-33% | % release of glipizide (Purified water pH 7.0, 900 ml, 30 mins): 38-41%
Substance: 1-cyclohexyl -3-[[p-[2-(methylpyrazinecarboxamido)ethyl]phenyl]sulfonyl]urea [Glipizide]
